According to ChEMBL document CHEMBL5375957, “Optimization of Novel α7 Nicotinic Acetylcholine Receptor Positive Allosteric Modulators and the Discovery of a Preclinical Development Candidate Molecule (RGH-560)” (J Med Chem, 2023):
≈ marks a conversion by molar mass, not a printed value.

What was measured:
[1] = Kinetic solubility of compound at pH 7.4 incubated for 2 hrs by UV-HPLC analysis; assay type: physicochemical; conditions: buffer, read-out: Kinetic_solubility
[2] = molecular target: T1, Neuronal acetylcholine receptor subunit alpha-7 (Homo sapiens, UniProt P36544); assay: Positive allosteric modulator activity at human alpha7 nAChR expressed in Flp-In HEK293 cells assessed as increase in calcium influx incubated for 10 mins by fluorescence based analysis; assay type: cell-based
[3] = Metabolic stability in human liver microsome assessed as intrinsic clearance measured per mg of protein incubated for 40 mins; assay type: ADME; conditions: liver microsomes, read-out: CLH
[4] = molecular target: T1, Neuronal acetylcholine receptor subunit alpha-7; assay: Positive allosteric modulator activity at human alpha7 nAChR expressed in Flp-In HEK293 cells assessed as increase in calcium influx at 10 uM incubated for 10 mins by fluorescence based analysis relative to control; assay type: cell-based
[5] = Metabolic stability in Wistar rat liver microsome assessed as intrinsic clearance measured per mg of protein incubated for 40 mins; assay type: ADME; conditions: liver microsomes, read-out: CLH
[6] = Metabolic stability in NMRI mouse liver microsome assessed as intrinsic clearance measured per mg of protein incubated for 40 mins; assay type: ADME; conditions: liver microsomes, read-out: CLH
[7] = filed as positive allosteric modulator

T1 sequence (P36544 whole entry): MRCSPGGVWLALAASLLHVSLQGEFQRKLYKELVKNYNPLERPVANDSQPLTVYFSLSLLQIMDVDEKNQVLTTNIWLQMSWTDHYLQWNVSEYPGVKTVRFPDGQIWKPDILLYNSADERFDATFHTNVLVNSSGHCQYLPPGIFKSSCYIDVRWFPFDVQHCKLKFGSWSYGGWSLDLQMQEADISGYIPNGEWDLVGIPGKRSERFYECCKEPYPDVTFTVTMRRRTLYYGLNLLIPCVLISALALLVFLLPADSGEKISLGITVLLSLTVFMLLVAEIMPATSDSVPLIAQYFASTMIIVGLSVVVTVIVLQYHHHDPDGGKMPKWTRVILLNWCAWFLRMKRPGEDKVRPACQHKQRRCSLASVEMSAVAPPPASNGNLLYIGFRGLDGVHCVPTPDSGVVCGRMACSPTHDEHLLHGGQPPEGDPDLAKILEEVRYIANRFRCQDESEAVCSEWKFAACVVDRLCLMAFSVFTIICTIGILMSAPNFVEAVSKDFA

SMILES | solubility kinetic at 2 h [1] [µM] | EC50 [2] [nM] | microsomal CLint [3] [µL/min/mg] | Emax [4, 7] [%] | microsomal CLint [5] [µL/min/mg] | Emax [4] [%] | microsomal CLint [6] [µL/min/mg]
Cc1cn(C)c2ncc(CNC(=O)N3CC(COc4ccc(C(F)(F)F)cc4)C3)cc12 | 14.2 (≈ 6.14 µg/mL) | 1200 |  |  |  |  | 
Cn1ccc2cc(CNC(=O)N3CC(COc4ccc(C(F)(F)F)nc4)C3)ccc21 | 1.8 (≈ 0.753 µg/mL) | 270 | 27 |  |  |  | 
CCn1ccc2cc(CNC(=O)N3CC(COc4ccc(C(F)(F)F)cc4)C3)ccc21 | 0.2 (≈ 0.0863 µg/mL) |  | 28 | 83 |  |  | 
O=C(NCc1cnc2[nH]c(Cl)cc2c1)N1CC(COc2ccc(C(F)(F)F)cc2)C1 | 4.5 (≈ 1.97 µg/mL) | 260 | 29 |  |  |  | 
COCc1cc2cc(CNC(=O)N3CC(COc4ccc(C(F)(F)F)cc4)C3)cnc2[nH]1 | 2.9 (≈ 1.3 µg/mL) |  | 43 |  | 48 | 30 | 
Cc1cc2cc(CNC(=O)N3CC(COc4ccc(C(F)(F)F)cc4)C3)ccc2[nH]1 | 2 (≈ 0.835 µg/mL) | 15 | 29 |  | 34 |  | 94
Cc1cc2cc(CNC(=O)N3CC(COc4ccc(C(F)(F)F)cc4)C3)ccc2n1C |  | 70 | 41 |  |  |  | 
O=C(NCc1ccc2[nH]ccc2c1)N1CC(COc2ccc(C(F)(F)F)cc2F)C1 | 16.3 (≈ 6.87 µg/mL) | 250 | 24 |  | 39 |  | 47
NC(=O)c1cc2cc(CNC(=O)N3CC(COc4ccc(C(F)(F)F)cc4)C3)ccc2[nH]1 | 6.9 (≈ 3.08 µg/mL) |  |  |  |  | 0 | 
Cn1ccc2cc(CNC(=O)N3CC(COc4ccc(F)cc4F)C3)ccc21 | 45.5 (≈ 17.5 µg/mL) | 270 | 48 |  |  |  | 
Cn1c(C#N)cc2cc(CNC(=O)N3CC(COc4ccc(C(F)(F)F)cc4)C3)ccc21 | 2.4 (≈ 1.06 µg/mL) |  |  |  |  | 15 | 
Cc1ccc(OCC2CN(C(=O)NCc3ccc4[nH]c(C)c(C)c4c3)C2)cc1 | 13.4 (≈ 5.06 µg/mL) | 490 | 323 |  |  |  | 
Cc1cc2cc(CNC(=O)N3CC(COc4ccc(C(F)(F)F)cc4)C3)cnc2n1C | 0.6 (≈ 0.259 µg/mL) | 300 | 54 |  |  |  | 
O=C(NCc1ccc2[nH]c(C3CC3)cc2c1)N1CC(COc2ccc(C(F)(F)F)cc2)C1 | 1.9 (≈ 0.843 µg/mL) |  | 25 |  | 56 | 3 | 
O=C(NCc1ccc2[nH]ccc2c1)N1CC(COc2ccc(C(F)(F)F)nc2)C1 | 86.8 (≈ 35.1 µg/mL) | 1100 |  |  |  |  | 
Cn1c(C2CC2)cc2cc(CNC(=O)N3CC(COc4ccc(C(F)(F)F)cc4)C3)cnc21 | 0.3 (≈ 0.138 µg/mL) |  |  |  |  | 0 | 

SMILES | solubility kinetic at 2 h [1] [µM] | EC50 [2] [nM] | microsomal CLint [3] [µL/min/mg] | Emax [4, 7] [%] | microsomal CLint [5] [µL/min/mg] | Emax [4] [%] | microsomal CLint [6] [µL/min/mg]
Cn1ccc2cc(CNC(=O)N3CC(COc4ccc(F)c(C#N)c4)C3)ccc21 | 9.2 (≈ 3.61 µg/mL) | 590 |  |  |  |  | 
O=C(NCc1ccc2[nH]ccc2c1)N1CC(COc2ccc(C(F)(F)F)cn2)C1 | 78.1 (≈ 31.6 µg/mL) | 150 | 37 |  | 63 |  | 78
O=C(NCc1ccc2c(ccn2CC(F)(F)F)c1)N1CC(COc2ccc(C(F)(F)F)cc2)C1 | 0.6 (≈ 0.291 µg/mL) |  |  |  |  | 3 | 
Cn1cc(C#N)c2cc(CNC(=O)N3CC(COc4ccc(C(F)(F)F)cc4)C3)cnc21 | 20.4 (≈ 9.05 µg/mL) |  | 49 |  | 38 | 20 | 
Cc1nnc(-c2cc3cc(CNC(=O)N4CC(COc5ccc(C(F)(F)F)cc5)C4)ccc3[nH]2)o1 | 5.1 (≈ 2.48 µg/mL) |  | 16 |  | 14 | 1 | 
Cn1ccc2cc(CNC(=O)N3CC(COc4ccc(F)cc4C#N)C3)ccc21 | 31 (≈ 12.2 µg/mL) | 2800 |  |  |  |  | 
Cc1ccc(OCC2CN(C(=O)NCc3ccc4[nH]c5c(c4c3)CCCC5)C2)cc1 | 4.4 (≈ 1.78 µg/mL) |  |  |  |  | 1 | 
COCCc1cc2cc(CNC(=O)N3CC(COc4ccc(C(F)(F)F)cc4)C3)ccc2n1C | 0.1 (≈ 0.0476 µg/mL) |  |  |  |  | 0 | 
Cn1c(Cl)cc2cc(CNC(=O)N3CC(COc4ccc(C(F)(F)F)cc4)C3)cnc21 | 0.2 (≈ 0.0906 µg/mL) |  |  |  |  | 4 | 
Cn1ccc2cc(CNC(=O)N3CC(COc4ccc(Cl)cc4)C3)cnc21 | 61.1 (≈ 23.5 µg/mL) | 360 | 34 |  | 53 |  | 57
O=C(NCc1ccc2[nH]c(C(F)F)cc2c1)N1CC(COc2ccc(C(F)(F)F)cc2)C1 | 41 (≈ 18.6 µg/mL) | 220 | 27 |  | 23 |  | 
O=C(NCc1cnc2[nH]ccc2c1)N1CC(COc2ccc(C(F)(F)F)cc2)C1 | 49.9 (≈ 20.2 µg/mL) | 3100 |  |  |  |  | 
Cn1ccc2cc(CNC(=O)N3CC(COc4ccc(C(F)(F)F)c(F)c4)C3)ccc21 | 0.2 (≈ 0.0871 µg/mL) | 45 |  |  |  |  | 
Cn1ccc2cc(CNC(=O)N3CC(COc4ccc(C(F)(F)F)cn4)C3)ccc21 | 0.9 (≈ 0.377 µg/mL) | 40 | 61 |  |  |  | 
CC(C)n1ccc2cc(CNC(=O)N3CC(COc4ccc(C(F)(F)F)cc4)C3)ccc21 | 0.9 (≈ 0.401 µg/mL) |  |  |  |  | 1 | 

Continued, values first:

solubility kinetic at 2 h [1] [µM] | EC50 [2] [nM] | microsomal CLint [3] [µL/min/mg] | Emax [4, 7] [%] | microsomal CLint [5] [µL/min/mg] | Emax [4] [%] | microsomal CLint [6] [µL/min/mg] | SMILES
5.3 (≈ 2.34 µg/mL) | 2200 | 43 |  |  |  |  | Cn1cc(C#N)c2cc(CNC(=O)N3CC(COc4ccc(C(F)(F)F)cc4)C3)ccc21
51.5 (≈ 19.3 µg/mL) | 140 | 11 |  | 52 |  | 100 | Cc1cc2cc(CNC(=O)N3CC4(CC(=O)c5ccccc5O4)C3)ccc2[nH]1
87.1 (≈ 31.5 µg/mL) |  |  | 58 |  |  |  | O=C1CC2(CN(C(=O)NCc3ccc4[nH]ccc4c3)C2)Oc2ccccc21
36.4 (≈ 14.3 µg/mL) |  | 18 |  | 34 |  | 51 | Cc1cc2cc(CNC(=O)N3CC4(CC(=O)c5cc(F)ccc5O4)C3)ccc2[nH]1
0.5 (≈ 0.209 µg/mL) | 80 | 61 |  |  |  |  | Cn1ccc2cc(CNC(=O)N3CC(COc4ccc(Cl)c(Cl)c4)C3)ccc21
1.2 (≈ 0.462 µg/mL) | 150 | 46 |  |  |  |  | Cn1ccc2cc(CNC(=O)N3CC(COc4ccc(F)c(F)c4)C3)ccc21
7.2 (≈ 3.26 µg/mL) | 390 | 97 |  |  |  |  | Cn1cc(Cl)c2cc(CNC(=O)N3CC(COc4ccc(C(F)(F)F)cc4)C3)cnc21
30.9 (≈ 12.7 µg/mL) |  | 8 |  | 80 |  | 121 | Cc1cc2cc(CNC(=O)N3CC4(CC(=O)c5cc(F)cc(F)c5O4)C3)ccc2[nH]1
< 0.1 | 200 | 30 |  | 96 |  | 140 | Cn1cc(Cl)c2cc(CNC(=O)N3CC(COc4ccc(C(F)(F)F)cc4)C3)ccc21
0.2 (≈ 0.0904 µg/mL) |  |  |  |  | 7 |  | Cn1c(Cl)cc2cc(CNC(=O)N3CC(COc4ccc(C(F)(F)F)cc4)C3)ccc21
0.1 (≈ 0.0436 µg/mL) | 55 | 107 |  |  |  |  | Cn1cc(F)c2cc(CNC(=O)N3CC(COc4ccc(C(F)(F)F)nc4)C3)ccc21
9.7 (≈ 3.98 µg/mL) |  | 128 |  |  |  |  | Cn1cc(Cl)c2cc(CNC(=O)N3CC4(CC(=O)c5ccccc5O4)C3)ccc21
10 (≈ 4.1 µg/mL) | 460 |  |  |  |  |  | Cc1[nH]c2ccc(CNC(=O)N3CC4(CC(=O)c5ccccc5O4)C3)cc2c1Cl
